ChEMBL document CHEMBL1158654, “Cytotoxic principles from the sap of Kalmia latifolia” (J Nat Prod, 1979)
Converted amounts (≈) assume the structure as drawn.

Experiments:
[1] = Cytotoxicity against human 9KB cells assessed as cell survival at 100 ug/ml relative to control; format: functional; conditions: read-out: Activity
[2] = Cytotoxicity against human 9KB cells assessed as cell survival at 10 ug/ml relative to control; format: functional; conditions: read-out: Activity
[3] = Cytotoxicity against human 9KB cells relative to control; format: functional; conditions: read-out: ED50 (the source's name)
[4] = Cytotoxicity against human 9KB cells in in-vivo based assay at 65 mg/kg relative to control; format: functional
[5] = Toxicity in ip dosed mouse; format: organism-based; conditions: in vivo
P388 = assay: Cytotoxicity against mouse P388 cells relative to control; format: functional

Row | Compound | viability at 100 µg/mL [1] [%] | viability at 10 µg/mL [2] [%] | EC50 [3] [µg/mL] | T/C [4] [%] | LD50 [5] [mg/kg] | T/C (P388) [%]
1 | COc1ccc(CCC(=O)c2c(O)cc(O)cc2O)cc1O | 46 | 100 |  |  |  | 
2 | COc1cc(CCC(=O)c2ccccc2)ccc1O | 0 | 82 |  |  |  | 
3 | O=C(CCc1ccc(O)cc1)c1c(O)cccc1O | 20 | 100 |  |  |  | 
4 | O=C(CCc1ccc(O)cc1)c1cccc(O)c1 | 0 | 71 |  |  |  | 
5 | O=C(CCc1ccc(O)c(O)c1)c1ccccc1O | 0 | 100 |  |  |  | 
6 | COc1cc(CCC(=O)c2ccccc2O)ccc1O | 0 | 76 |  |  |  | 
7 | COc1ccc(C(=O)CCc2ccc(O)cc2)c(O)c1 | 0 | 100 |  |  |  | 
8 | COc1cc(O)c(C(C)=O)c(O)c1 | 0 | 0 | 4.7 (≈ 25.8 µM) |  |  | 
9 | O=C(CCc1ccc(O)cc1)c1ccc(O)c(O)c1O | 0 | 100 |  |  |  | 
10 | O=C(CCc1ccc(O)cc1)c1ccccc1O | 0 | 100 |  |  |  | 
11 | COc1cc(O)c(C(=O)CCc2ccccc2)c(OC)c1 | 0 | 59 |  |  |  | 
12 | COc1cc(C(=O)CCc2ccc(O)cc2)ccc1O | 0 | 57 |  |  |  | 
13 | O=C(CCc1ccc(O)c(O)c1)c1c(O)cc(O)cc1O | 0 | 95 |  |  |  | 
14 | O=C(CCc1ccc(O)cc1)c1ccc(O)cc1 | 0 | 90 |  |  |  | 
15 | O=C(CCc1ccc(O)cc1)c1ccccc1 | 0 | 89 |  |  |  | 
16 | O=C(CCc1ccccc1)c1c(O)cc(O)cc1O | 0 | 100 |  |  |  | 
17 | O=C(CCc1ccc(O)c(O)c1)c1ccc(O)c(O)c1O | 0 | 0 | 2.5 (≈ 8.61 µM) | 126 |  | 
18 | CC(=O)c1c(O)cc(O)cc1O [2,4,6-TRIHYDROXYACETOPHENONE] | 29 | 100 |  |  |  | 
19 | COc1cc(O)c(C(=O)CCc2ccc(O)cc2)c(O)c1 [ASEBOGENIN] | 0 | 100 |  |  |  | 
20 | COc1cc(O)c(C(=O)CCc2ccc(O)cc2)c(O[C@@H]2O[C@H](CO)[C@@H](O)[C@H](O)[C@H]2O)c1 [ASEBOTIN] | 100 | 100 |  |  |  | 
21 | O=C(CCc1ccc(O)cc1)c1ccc(O)cc1O [DAVIDIGENIN] | 0 | 50 |  |  |  | 
22 | CC(=O)c1ccc(O)c(O)c1O [GALLACETOPHENONE] | 0 | 81 |  |  |  | 
23 | CC(=O)O[C@@H]1[C@H]2CC[C@H]3[C@@](C)(O)[C@@H]4C[C@H](O)C(C)(C)[C@@]4(O)[C@H](O)C[C@@]13C[C@@]2(C)O [GRAYANOTOXIN I] |  |  | 60 (≈ 145 µM) |  | 1.3 | 
24 | O=C(CCc1ccc(O)cc1)c1c(O)cc(O)cc1O [PHLORETIN] | 0 | 76 | 28 (≈ 102 µM) |  |  | 
25 | O=C(CCc1ccc(O)cc1)c1c(O)cc(O)cc1O[C@@H]1O[C@H](CO)[C@@H](O)[C@H](O)[C@H]1O [PHLORIZIN] | 47 | 100 | 100 (≈ 229 µM) |  |  | 
26 | COc1cc(O)c(C(C)=O)c(O[C@@H]2O[C@H](CO)[C@@H](O)[C@H](O)[C@H]2O)c1 [PLEOSIDE] | 39 | 100 |  |  |  | 
27 | COc1cc(O)c(Cc2ccccc2O)c(O)c1C(=O)CCc1ccccc1 [UVARETIN] |  |  |  |  |  | 132
28 | COc1cc(O)c(C(C)=O)c(OC)c1 [XANTHOXYLIN] | 0 | 100 |  |  |  | 
